Read-outs that look alike come from different tables or passages of the source.

One data set deals with HL-60 cells. As to the kind of experiment: Cytotoxic activity (MTS assay). The data set is classed as cell-based, human. Particulars: HL-60, MTS, 24 h; read-out: Cytotoxicity, IC50 HL-60. The protocol: Then, the cells were incubated with 10 µL MTS ([3-(4,5-dimethylthiazol-2-yl)-5-(3-carboxymethoxyphenyl)-2-(4-sulfophenyl)-2H-tetrazolium) for 4 h, and the absorbance in each well was determined at 490/630 nm with a PHERA star FS plate reader (BMG Labtech, Ortenberg, Germany). The experiments were conducted in triplicate.
In general terms: Tetrazolium assays rely on reduction of a dye to a coloured formazan, in cell work by metabolically active cells.

The test system of another data set is human erythrocytes. Kind of data set: Hemolytic activity. The data set is classed as cell-based. Particulars: 1 h incubation at 37 °C, 50% hemolysis. The procedure:
Erythrocytes were obtained from human blood (AB(IV) Rh+) by centrifugation with phosphate-buffered saline (PBS) (pH 7.4) at 4 °C for 5 min by 450 g on a LABOFUGE 400R centrifuge (Heraeus, Hanau, Germany) three times. Then, the erythrocytes residue was resuspended in ice cold phosphate saline buffer (pH 7.4) to a final optical density of 1.5 at 700 nm and kept on ice. For the hemolytic assay, 180 µL of erythrocyte suspension was mixed with 20 µL of test compound solution, as well as control, chitonoidoside L [33], in V-bottom 96-well plates. After 1 h of incubation at 37 °C, the plates were exposed to centrifugation for 10 min at 900 g in a laboratory LMC-3000 centrifuge (Biosan, Riga, Latvia). Then, 100 µL of supernatant was carefully decanted and transferred into new flat plates. The values of the lysis of the erythrocytes were found by measuring the concentration of hemoglobin in the supernatant with a Multiskan FC microplate photometer (Thermo Fisher Scientific, Waltham, MA, USA); λ = 570 nm. […] All the experiments were carried out in triple repetitions; p < 0.01.

The test system of data set [1] is MDA-MB-231 cells. Kind of data set: Cytotoxic activity (MTT assay). The data set is classed as cell-based, human. Particulars: for IC50: MDA-MB-231, MTT, 24 h, read-out: Cytotoxicity, IC50 MDA-MB-231. The procedure:
(§1) After incubation, the glycosides with medium were replaced by 100 μL of fresh medium. Then, 10 μL of MTT (3-(4,5-dimethylthiazol-2-yl)-2,5-diphenyltetrazolium bromide) (Sigma-Aldrich, St. Louis, MO, USA) stock solution (5 mg/mL) was added to each well, followed by incubation of the microplate for 4 h. After this procedure, 100 μL of SDS-HCl solution (1 g SDS/10 mL d-H2O/17 μ[…] HCl) was added to each well and incubated for 18 h. The absorbance of the converted dye formazan was determined with a Multiskan FC microplate photometer (Thermo Fisher Scientific, Waltham, MA, USA) at 570 nm.

For a further data set, the system named is HEK293 cells. Kind of data set: Cytotoxic activity (MTT assay). The data set is classed as cell-based, human. As to conditions: HEK293, MTT, 24 h; read-out: Cytotoxicity, IC50 HEK293. The protocol: as §1
A further data set concerns MCF-7 cells. Kind of data set: Cytotoxic activity (MTT assay). The format is cell-based, human. As to conditions: MCF-7, MTT, 24 h; read-out: Cytotoxicity, IC50 MCF-7. The procedure:
as §1

The next data set has as its system T-47D cells. As to the kind of experiment: Cytotoxic activity (MTT assay). The data set is classed as cell-based, human. As to conditions: T-47D, MTT, 24 h; read-out: Cytotoxicity, IC50 T-47D. The procedure:
as §1

In data set [2] the test system is MDA-MB-231 cells. As to the kind of experiment: Wound scratch migration assay. The data set is classed as cell-based, human. As to conditions: MDA-MB-231, 0.05 µM, 24 h. The source says:
To analyze the influence of the tested compounds on tumor cell migration, MDA-MB-231 cells attached to the plate’s plastic bottom were separated by a silicone insert from special migration plates (Culture-insert 2 Well 24, ibiTreat); then, the insert was removed, leaving a gap of 500 ± 50 μm (according to the manufacturer’s data) between the cells. The cells were washed twice by PBS to remove cell debris and floating cells and loaded with a fluorescent probe, a (5,6)-carboxyfluorescein succinimidyl ester (CFDA SE) dye (LumiTrace CFDA SE kit, Lumiprobe, Moscow, Russia). The initial solution of CFDA SE at a concentration of 5 mM in DMSO was dissolved in PBS to prepare a 10 μM solution and was added to the cells for 5 min at 37 °C; then, the cells were washed twice with PBS, and fresh culture medium was added. After that, the cells were treated with various concentrations of glycosides and left for 8 and 24 h. Cells treated with culture medium only were used as control. Cell migration into the wound area was then observed under a fluorescence microscope (MIB-2-FL, LOMO, Saint Peterburg, Russia) with an objective ×10 magnification.

The subject of data set [3] is MDA-MB-231 cells. Kind of data set: Colony formation (clonogenic) assay. The format is cell-based, human. As to conditions: MDA-MB-231, concentration 0.5 μM. The procedure:
The influence of glycosides on the proliferation of MDA-MB-231 cells was analyzed by clonogenic assay. Briefly, MDA-MB-231 cells were cultured on 6-well plates at a density of 1 × 10^3 cells per well in control media (MEM media, 10% FBS, 10,000 U/mL of penicillin and 10,000 μg/mL of streptomycin) or in media supplemented with different concentrations of glycosides. Cells were incubated for one week at 37 °C with 5% CO2 until the cells in the control plates formed colonies that were visible to the eye and were of a substantial size (at least 50 cells per colony). For fixation and staining, the media were removed and the cells were washed twice with PBS. The colonies were fixed with methanol for 25 min, then washed with PBS and stained with 0.5% crystal violet solution for 25 min at room temperature. The plates were then washed with water and air dried.

What is called IC50 is the concentration that gives 50% inhibition. On to `CO[C@@H]1[C@@H](O)[C@H](O[C@@H]2[C@@H](O)[C@H](O[C@H]3[C@H](O)[C@@H](O[C@H]4OC[C@H](O)[C@H](O)[C@@H]4O)[C@H](O[C@H]4[C@H](O[C@H]5CC[C@]6(C)[C@@H]7CC[C@]89C(=O)O[C@@](C)(C[C@@H](O)CC(C)C)[C@H]8[C@@H](OC(C)=O)C[C@@]9(C)C7=CC[C@H]6C5(C)C)OC[C@@H](OS(=O)(=O)O)[C@@H]4O)O[C@@H]3C)OC[C@H]2O)O[C@H](CO)[C@H]1O` [frondoside D], for which the IC50 is 18.08 ± 0.08 µM in the data set on HL-60 cells; 12 ± 1.28 µM with MDA-MB-231 cells [1]; 9.45 ± 0.78 µM with HEK293 cells; 23.2 ± 0.92 µM with MCF-7 cells; 11.8 ± 1.1 µM in the data set on T-47D cells. Further, in the data set on human erythrocytes, the “ED50, Erythrocytes” value stood at 9.22 ± 0.10 µM.
One may read the EC50 as the concentration needed to bring the measured effect to its halfway point. As for `COC1C(O)C(CO)OC(OC2C(O)COC(OC3C(C)OC(OC4C(OC5CCC6(C)C7CCC89C(=O)OC(C)(CC(=O)CC(C)C)C8C(OC(C)=O)CC9(C)C7=CCC6C5(C)C)OCC(OS(=O)(=O)[O-])C4O)C(O)C3O)C2O)C1O.[Na+]` (centres unmarked) [okhotoside A1-1], the IC50 in the data set with HL-60 cells stood at 2.52 ± 0.26 µM; with MDA-MB-231 cells [1] it was 2.34 ± 0.53 µM; in the data set on HEK293 cells it was 3.17 ± 0.7 µM; in the data set on MCF-7 cells, 8.34 ± 0.12 µM; in the data set on T-47D cells it was 8.46 ± 0.65 µM. Also, the “Inhibition of migration in comparison with control” value in the data set on MDA-MB-231 cells [2] turned out to be 74.76 ± 4.41%. For the same molecule, the “ED50, Erythrocytes” value in the data set on human erythrocytes came to 0.75 ± 0.09 µM. For the same molecule, the EC50 came out at 2.34 µM in the data set on MDA-MB-231 cells [1] (MDA-MB-231, 24 h, read-out: Cytotoxic effect EC50 on MDA-MB-231, 24 h); 2.05 µM in the data set with MDA-MB-231 cells [1] (MDA-MB-231, 48 h, read-out: Cytotoxic effect EC50 on MDA-MB-231, 48 h); 1.73 µM in the data set on MDA-MB-231 cells [1] (MDA-MB-231, 72 h, read-out: Cytotoxic effect EC50 on MDA-MB-231, 72 h). In the data set with MDA-MB-231 cells [3], the “Inhibition of formation and growth of colonies, % of the control” value is listed as 70.76 ± 0.13%.
